In patent US8003572B2 (priority 2004, dated 2011):

Tests used:
[1] = test system: C85 colorectal adenocarcinoma cells; test: Clonogenic assay with C85 colorectal adenocarcinoma cells; type: cell-based, human
Description: Compounds identified by structure based screening were assayed in a clonogenic assay with C85 colorectal adenocarcinoma cells. Briefly, C85 cells were plated at 200 cells per well in six well plates. Seventy-two hours after plating, compounds 05RB, 0BWP, 0FZK, 0RZL, HBS01, 01LX, 0464, 1BJO AND 27NT were added at various concentrations (See Table 1). Colonies were counted 96 hours after treatment and IC50 concentrations determined (Table 1).

[2] = test system: MCF-7 breast cancer cells; test: MCF-7 breast cancer tumors in nude mice; type: in vivo
Description: MCF-7 breast cancer cell growth was assessed in nude mice (NIH, Cr:(MCr)-Fox1nu(nu/nu homogygous), Taconic Inc., Germantown, N.Y.) treated or pretreated with HBS01 over 31 days. Briefly, pretreated animals were administered three daily doses of HBS01 at 17 mg/Kg given on day −3, −2, and −1 prior to tumor cell injection on day 0. No further treatment was given to the pretreated animals. Nude mice were injected in the flanks with 200,000 MCF-7 breast cancer cells. Treated animals were treated with daily injections of HBS01 at 17 mg/kg per at days 10, 11, 12, 15, 16 and 17 following appearance of palpable tumors on day 10. Tumor diameters were measured with calipers every alternate day and tumor volumes were calculated by ½ab^2 where a is the larger diameter (Friedman, H S., et al. Cancer Res. 46, 2827-2833). The results are shown in FIG. 4 as tumor volume in cm^3.

[3] = Maximum tolerated dose in mice; conditions: nude, mouse, in vivo
[4] = test system: EGFP marked C85 cells; test: Metastatic growth of EGFP marked C85 cells in nude mice; type: in vivo; conditions: pre-treated 14.5 mg/kg every 24 hrs for five days; ten days post-C85 tail vein injection
Description: The effect of HBS01 on the metastatic growth of enhanced green fluorescent protein (EGFP) marked C85 cells was assayed in nude mice (NIH, Cr:(MCr)-Fox1nu(nu/nu homogygous), Taconic Inc., Germantown, N.Y.). Briefly, nude mice were pre-treated with 14.5 mg/kg of HBS01 every 24 hrs for five days. At the completion of pre-treatment the pre-treated or control non-treated mice were injected in the tail vein with 1×10^6 EGFP marked C85 cells. Ten days post-C85 injection, the mice were dissected and tumor size assessed based on intravital fluorescence imaging and liver biopsies.

[5] = test system: C85 human colorectal cancer cells; test: C85 colorectal tumors in nude mice; type: in vivo
Description: C85 human colorectal cancer cell growth was assessed in nude mice (NIH, Cr:(MCr)-Fox1nu(nu/nu homogygous), Taconic Inc., Germantown, N.Y.) treated or pretreated with HBS01 over a 19 day period. Briefly, pretreated animals were administered three daily doses of HBS01 at 17 mg/Kg given on day −3, −2, and −1 prior to tumor cell injection on day 0. No further treatment was given to the pretreated animals. Nude mice were injected in the flanks with 1 million C85 human colorectal cancer cells. Treated animals were treated with daily injections of HBS01 at 17 mg/kg per at days 10, 11, 12, 15, 16 and 17 following appearance of palpable tumors on day 10.
Tumor diameters were measured with calipers every alternate day and tumor volumes were calculated by ½ab^2 where a is the larger diameter (Friedman, H S., et al. Cancer Res. 46, 2827-2833). The results are shown in FIG. 3 as tumor volume in cm^3.

[6] = test system: MCF-7; test: MTS cell proliferation assay in MCF-7; type: cell-based; conditions: Homo sapiens, MCF7
Description: (§1) In order to determine the IC50 values of HBS01 an MTS assay was performed on MCF-7 and MCF-7/ADR (adramycin resistance) cell lines. Cells were plated in a 96 well plate at 5,000 cells/well. After plating, cells were treated for 96 hours with either HBS01, methotrexate (MTX), doxyrubicin (DOX), or 5-Fluorouracil (5FU) and an MTS assay was performed according to manufacturer's protocol with the CELL TITER 96 AQ non-radioactive cell proliferation assay kit (Promega, Cat. No. G5421). Viable cells were quantitated based on absorbance at 490 nm. […] Thus, HBS01 was an extremely potent inhibitor of MCF-7 and MCF-7Adr proliferation.

[7] = test system: cyclin-B; test: Ubiquination of cyclin-B in C85 cell lysates (Western blot); type: cell-based; conditions: C85 cells treated for 24 hrs
Description: The ability of HBS01 to inhibit protein ubiquination of cyclin-B was assayed in C85 cell lines. Briefly, C85 cells were plated at 200 cells per well in six well plates. Cells were either untreated (controls) or treated for 24 hrs with HBS01. After the treatment period, cells were harvested and extracts were prepared from the cells by freeze fracturing in liquid nitrogen in breakage buffer (50 mM Tris pH 7.5, 1 mM DTT, “Complete” protease inhibitor cocktail (Roche, Cat.# 1697498), 10 μM MG132). Roughly […] of total protein extracts in 300 μl of breakage buffer was supplemented with 20 μg of PHH-Ub (HA and His6 tagged Ubiquitin) and incubated at 30° C. for 60 min. 3×SDS-PAGE sample buffer was added to 40 μl of this reaction and boiled for 3 min. The extracts were run on 12% Laemmli gels and Western Blots were performed with anti-cyclin-B antibody (Santa Cruz Biotechnology, Inc., Santa Cruz, Calif.). Results were visualized by ECL, with the ECL plus western blot detection kit (Amersham Biosciences, Piscataway, N.J.) according to manufacturers instructions.

[8] = test system: MCF-7/ADR (adramycin resistance) cell line; test: MTS cell proliferation assay in MCF-7/ADR; type: cell-based; conditions: Homo sapiens, NCI/ADR-RES
Description: as §1

[9] = test system: protein ubiquination pathways; test: Protein ubiquination in C85 cell lysates (HA-tagged ubiquitin Western blot); type: cell-based; conditions: C85 cells treated for 24 or 48 hrs
Description: Briefly, C85 cells were plated at 200 cells per well in six well plates.
Cells were either untreated (controls) or treated for 24 or 48 hrs with HBS01. After the treatment period, cells were harvested and extracts were prepared from the cells by freeze fracturing in liquid nitrogen in breakage buffer (50 mM Tris pH 7.5, 1 mM DTT, “Complete” protease inhibitor cocktail (Roche, Cat.# 1697498), 10 μM MG132). Roughly […] of total protein extracts in 300 μl of breakage buffer was supplemented with 20 μg of PHH-Ub (HA and His6 tagged Ubiquitin) and incubated at 30° C. for 60 min. 3×SDS-PAGE sample buffer was added to 40 μl of this reaction and boiled for 3 min. The extracts were run on 12% Laemmli gels that were either stained with Coomassie Blue R-250 or blotted with HRP conjugated 12CA5 monoclonal antibody (Roche, Inc., Indianapolis, Ind.) and visualized by ECL, with the ECL plus western blot detection kit (Amersham Biosciences, Piscataway, N.J.) according to manufacturers instructions.

[10] = Homo sapiens, C85 cells, colonies counted 96 hours after treatment
[11] = pretreated animals, 17 mg/Kg on day -3, -2 and -1 prior to tumor cell injection

**Q.** With `Nc1ccc(Nc2ccccc2)cc1` [Compound 05RB, N-Phenyl-4-phenylenediamine] as the compound, how does the IC50 ([1]; C85 cells, colonies counted 96 hours after treatment) read?
**A.** The IC50 was 37500 nM.

**Q.** With `CC1CN(c2ccccc2)NC1=O` (centres unmarked) [Compound 0RZL, 1-Phenyl-4-methyl-3-pyrazolidone] as the compound, how does the IC50 [1, 10] read?
**A.** Its IC50 is 50000 nM.

**Q.** For `Oc1cc(Cl)cnc1O` [Compound 0FZK, 5-chloro-2,3-dihydroxypyridine], which IC50 [1, 10] is on record?
**A.** Its IC50 is 175000 nM.

**Q.** Which results are given for `NCC1CCNCC1` [HBS01, 4-(Aminomethyl)piperidine]?
**A.** onset of tumors (tumor volume) [2, 11]: delayed the onset of MCF-7 tumors; tumor growth (tumor volume) ([2]; treated animals, 17 mg/kg daily at days 10, 11, 12, 15, 16 and 17): significantly inhibited tumor growth; MTD [3]: 1400 mg/kg; metastatic tumors [4]: metastatic tumors were not detectable; tumor growth (tumor volume) [5, 11]: delayed tumor growth; growth of established tumors (tumor volume) ([5]; treated animals, 17 mg/kg daily at days 10, 11, 12, 15, 16 and 17, 17 mg/kg): significantly inhibited the growth of established tumors; IC50 ([1]; Homo sapiens, C85 cells, colonies counted 96 hours after treatment, * denotes nM): 30 nM; IC50 ([1]; human colon cancer cell line C85): 30 nM; IC50 ([6]; MCF-7, treated for 96 hours, MTS): 0.03 µM; IC50 ([6]; breast cancer cell line MCF-7): 0.03 µM; ubiquination of cyclin-B [7]: selectively inhibited the ubiquination of cyclin-B; IC50 ([8]; MCF-7Adr, treated for 96 hours, MTS): 0.03 µM; IC50 ([8]; breast cancer cell line MCF-7Adr): 0.03 µM; general ubiquitin conjugation (ubiquitin intensities and banding patterns) [9]: general inactivation of the ubiquitin conjugation pathways did not occur

**Q.** For `CC(=O)Nc1ccccc1O` [Compound 01LX, 2-Acetamidophenol], which IC50 [1, 10] is on record?
**A.** The IC50 was 375000 nM.

**Q.** Which IC50 [1, 10] does the source give for `Nc1ccc2cn[nH]c2c1` [Compound 0464, 6-AMINOINDAZOLE] here?
**A.** Its IC50 is 70000 nM.

**Q.** Which IC50 [1, 10] does the source give for `NC(=O)c1ccc([N+](=O)[O-])cc1Cl` [Compound 0BWP, 2-Chloro-4-nitrobenzamide] here?
**A.** Its IC50 is 600000 nM.
